Eleven molecules from publication PMC9516332 (Frontiers in Oncology, 2022) can be followed below.

What all share (assay): Kinase panel profiling at 1 µmol/L (MSA or IMAP), percentage inhibition
What all share (assay type): biochemical

Experiment [1] has as its target panel of 255 wild-type kinases (Homo sapiens, UniProt Q9H2X6). Particulars: read-out: %-inhibition at 1 µmol/L, HIPK2.
Experiment [2] concerns the target T1, panel of 255 wild-type kinases (Homo sapiens, UniProt Q15139).
T1 sequence (Q15139 1-912): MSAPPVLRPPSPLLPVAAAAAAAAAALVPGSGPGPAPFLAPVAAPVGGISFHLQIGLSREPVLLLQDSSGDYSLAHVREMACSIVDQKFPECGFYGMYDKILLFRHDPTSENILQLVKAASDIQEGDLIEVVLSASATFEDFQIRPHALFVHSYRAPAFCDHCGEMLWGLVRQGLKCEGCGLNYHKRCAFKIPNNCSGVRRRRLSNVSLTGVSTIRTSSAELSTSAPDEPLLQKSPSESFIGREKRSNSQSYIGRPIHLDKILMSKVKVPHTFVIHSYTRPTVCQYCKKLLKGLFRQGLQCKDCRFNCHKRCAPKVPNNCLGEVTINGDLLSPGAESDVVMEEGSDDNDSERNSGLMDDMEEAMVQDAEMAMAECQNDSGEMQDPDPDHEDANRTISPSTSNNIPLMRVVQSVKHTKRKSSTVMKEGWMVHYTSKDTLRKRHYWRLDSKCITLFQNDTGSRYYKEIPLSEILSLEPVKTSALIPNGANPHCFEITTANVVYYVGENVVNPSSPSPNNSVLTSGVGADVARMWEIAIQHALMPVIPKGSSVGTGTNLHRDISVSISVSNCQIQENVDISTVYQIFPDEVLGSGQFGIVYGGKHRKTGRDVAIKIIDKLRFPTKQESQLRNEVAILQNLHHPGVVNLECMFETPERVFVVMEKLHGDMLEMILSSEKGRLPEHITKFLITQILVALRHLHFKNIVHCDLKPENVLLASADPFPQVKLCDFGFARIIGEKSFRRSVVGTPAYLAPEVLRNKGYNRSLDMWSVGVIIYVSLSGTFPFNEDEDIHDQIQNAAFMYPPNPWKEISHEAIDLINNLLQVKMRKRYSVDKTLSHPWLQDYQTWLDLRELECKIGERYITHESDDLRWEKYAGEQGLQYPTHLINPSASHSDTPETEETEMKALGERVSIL
Particulars: read-out: %-inhibition at 1 µmol/L, PKD1.

Experiment [3] has as its target panel of 255 wild-type kinases (Homo sapiens, UniProt Q8N4C8). Particulars: read-out: %-inhibition, MINK.
The target of experiment [4] is panel of 255 wild-type kinases (Homo sapiens, UniProt Q9Y243). Particulars: read-out: %-inhibition AKT3.
Experiment [5] has as its target panel of 255 wild-type kinases (Homo sapiens, UniProt Q9BUB5). The settings on record: read-out: %-inhibition, MNK1.
Experiment [6] concerns the target T2, panel of 255 wild-type kinases (Homo sapiens, UniProt Q9BXA7).
T2 sequence (Q9BXA7 1-367): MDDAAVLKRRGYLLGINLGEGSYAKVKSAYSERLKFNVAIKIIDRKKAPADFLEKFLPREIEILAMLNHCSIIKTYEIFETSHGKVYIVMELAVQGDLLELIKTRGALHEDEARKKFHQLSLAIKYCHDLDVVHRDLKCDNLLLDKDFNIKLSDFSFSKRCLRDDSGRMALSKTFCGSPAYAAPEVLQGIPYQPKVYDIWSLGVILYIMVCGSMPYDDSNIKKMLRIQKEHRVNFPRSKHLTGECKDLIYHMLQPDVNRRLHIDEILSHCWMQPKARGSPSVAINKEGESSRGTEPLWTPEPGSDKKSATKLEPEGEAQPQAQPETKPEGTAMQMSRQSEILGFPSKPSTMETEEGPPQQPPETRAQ
The settings on record: read-out: %-inhibition at 1 µmol/L, TSSK1.

The target of experiment [7] is panel of 255 wild-type kinases (Homo sapiens, UniProt Q9Y5S2). The settings on record: read-out: %-inhibition, MRCKβ.
Experiment [8] addresses panel of 255 wild-type kinases (Homo sapiens, UniProt Q9Y6M4). Particulars: read-out: %-inhibition at 1 µmol/L, CK1γ3.
For experiment [9], the target named is T3, panel of 255 wild-type kinases (Homo sapiens, UniProt O43781).
T3 sequence (O43781 1-588): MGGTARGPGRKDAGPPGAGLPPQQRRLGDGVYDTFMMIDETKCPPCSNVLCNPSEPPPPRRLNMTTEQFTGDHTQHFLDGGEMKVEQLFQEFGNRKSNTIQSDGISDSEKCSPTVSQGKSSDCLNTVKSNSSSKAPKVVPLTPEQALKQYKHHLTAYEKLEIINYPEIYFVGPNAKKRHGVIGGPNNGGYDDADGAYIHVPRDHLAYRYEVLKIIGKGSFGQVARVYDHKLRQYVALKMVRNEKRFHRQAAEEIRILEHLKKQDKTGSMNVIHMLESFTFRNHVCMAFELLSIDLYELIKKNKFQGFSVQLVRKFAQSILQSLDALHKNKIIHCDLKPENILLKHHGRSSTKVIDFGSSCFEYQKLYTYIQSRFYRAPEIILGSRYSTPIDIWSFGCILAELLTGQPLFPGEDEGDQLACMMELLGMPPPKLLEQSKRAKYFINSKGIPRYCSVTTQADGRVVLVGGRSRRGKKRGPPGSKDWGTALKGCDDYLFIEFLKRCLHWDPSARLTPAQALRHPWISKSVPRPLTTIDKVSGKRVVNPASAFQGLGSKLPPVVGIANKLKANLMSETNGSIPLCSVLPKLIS
Particulars: read-out: %-inhibition at 1 µmol/L, DYRK3.

Where [10] appears, read: kinase HIPK2, 1 µmol/L single concentration.
Where [11] appears, read: kinase PKD1, 1 µmol/L single concentration.
Setting [12] is: MINK, 1 µmol/L single concentration.
Setting [13] is: AKT3 kinase assay, 1 µmol/L single concentration.
[14] abbreviates: MNK1, 1 µmol/L single concentration.
Setting [15] is: kinase TSSK1, 1 µmol/L single concentration.
Setting [16] is: MRCKβ, 1 µmol/L single concentration.
Setting [17] is: kinase CK1γ3, 1 µmol/L single concentration.
Where [18] appears, read: kinase DYRK3, 1 µmol/L single concentration.

Read-outs that look alike come from different tables or passages of the source.

For `Cc1nc(NC(=O)N2CCC[C@H]2C(N)=O)sc1-c1ccnc(C(C)(C)C(F)(F)F)c1` [alpelisib], the inhibition at 1 µM in [1] (setting [10]) is 3.33%; in [2] (setting [11]), -2%; in experiment [3] (setting [12]), -2%; in [4] (setting [13]) it was -0.151%; in experiment [5] (setting [14]) it was 2.72%; in [6] (setting [15]), -5%. Moreover, the inhibition at 1 µM in [7] (setting [16]) was -7%; in [8] (setting [17]), -2%; in experiment [9] (setting [18]), 10%.

On to `Cn1cc(-c2cc3c(N4CCN(c5ncc([C@@](C)(N)c6ccc(F)cc6)cn5)CC4)ncnn3c2)cn1` [avapritinib], for which the inhibition at 1 µM in [1] (setting [10]) was 4%; in [2] (setting [11]) it was 6.4%; in experiment [3] (setting [12]) it was 4.44%; in [4] (setting [13]) it was -5%; in [5] (setting [14]), 72%; in experiment [6] (setting [15]) it was 2.83%. The inhibition at 1 µM in experiment [7] (setting [16]) amounted to 12%; in [8] (setting [17]), 10%; in experiment [9] (setting [18]), 49%.

For `Cn1cnc2c(F)c(Nc3ccc(Br)cc3F)c(C(=O)NOCCO)cc21` [binimetinib], the inhibition at 1 µM is -4.27% in experiment [1] (setting [10]); -1.69% in [2] (setting [11]); -4.54% in [3] (setting [12]); -5.69% in experiment [4] (setting [13]); 1.8% in experiment [5] (setting [14]); 0.849% in [6] (setting [15]). Besides, the inhibition at 1 µM was 1.58% in experiment [7] (setting [16]), 2.67% in experiment [8] (setting [17]) and -3.3% in [9] (setting [18]).

Regarding `CNC(=O)c1ccc(-c2cnc3ncc(Cc4ccc5ncccc5c4)n3n2)cc1F` [capmatinib], the inhibition at 1 µM in [1] was 0.264%; in [2] it was -5%; in experiment [3], -4%; in experiment [4] it was -5%; in experiment [5], -1%; in experiment [6] it was 3%. Moreover, the figures for the inhibition at 1 µM in experiment [7], in experiment [8] and in experiment [9] were -1.73%, -1.65% and 4.5%, respectively.

`COc1cc2ncnc(Nc3ccc(F)c(Cl)c3)c2cc1NC(=O)/C=C/CN1CCCCC1` [dacomitinib]: the inhibition at 1 µM is 4.76% in experiment [1] (setting [10]); 9.49% in experiment [2] (setting [11]); 7.37% in [3] (setting [12]); -5% in experiment [4] (setting [13]); 91% in experiment [5] (setting [14]); -2.48% in [6] (setting [15]). In addition, the inhibition at 1 µM is 8% in experiment [7] (setting [16]), -23% in [8] (setting [17]) and 18% in experiment [9] (setting [18]).

For the molecule `C[C@H](Nc1ncnc2nc[nH]c12)c1cc2cccc(Cl)c2c(=O)n1-c1ccccc1` [duvelisib], the inhibition at 1 µM in experiment [1] (setting [10]) is 0.116%; in experiment [2] (setting [11]) it was -3.47%; in [3] (setting [12]), 0.317%; in experiment [4] (setting [13]) it was 0.279%; in experiment [5] (setting [14]), 0.446%; in experiment [6] (setting [15]) it was -4%. In addition, the inhibition at 1 µM in experiment [7] (setting [16]) is -7%; in [8] (setting [17]), -0.689%; in experiment [9] (setting [18]), -2%.

With `COC(=O)N[C@@H](C)CNc1nccc(-c2cn(C(C)C)nc2-c2cc(Cl)cc(NS(C)(=O)=O)c2F)n1` [encorafenib], the inhibition at 1 µM in experiment [1] (setting [10]) was 0.238%; in experiment [2] (setting [11]) it was 0.18%; in experiment [3] (setting [12]) it was 1.29%; in experiment [4] (setting [13]), -0.872%; in experiment [5] (setting [14]), 4.33%; in experiment [6] (setting [15]), 3%. In addition, the inhibition at 1 µM in experiment [7] (setting [16]) is 1.73%; in [8] (setting [17]), 10%; in experiment [9] (setting [18]), -1.06%.

In the case of `CN1CCN(c2ccc(C(=O)Nc3n[nH]c4ccc(Cc5cc(F)cc(F)c5)cc34)c(NC3CCOCC3)c2)CC1` [entrectinib], the inhibition at 1 µM was 8% in experiment [1] (setting [10]); 1.46% in experiment [2] (setting [11]); 1.64% in [3] (setting [12]); -1.28% in experiment [4] (setting [13]); -1% in experiment [5] (setting [14]); 8% in [6] (setting [15]). Further, the inhibition at 1 µM was -7% in experiment [7] (setting [16]), 0.879% in experiment [8] (setting [17]) and -3% in experiment [9] (setting [18]).

On to `CCc1nc(C(N)=O)c(Nc2ccc(N3CCC(N4CCN(C)CC4)CC3)c(OC)c2)nc1NC1CCOCC1` [gilteritinib], for which the inhibition at 1 µM in experiment [1] (setting [10]) was 84%; in experiment [2] (setting [11]) it was 52%; in experiment [3] (setting [12]) it was 80%; in experiment [4] (setting [13]) it was -4.56%; in experiment [5] (setting [14]), 70%; in [6] (setting [15]), 95%. For the same molecule, the figures for the inhibition at 1 µM in [7] (setting [16]), in experiment [8] (setting [17]) and in experiment [9] (setting [18]) were 47%, 11% and 27%, respectively.

In the case of `CCN1CCN(c2ccc(Nc3cc(N(C)C(=O)Nc4c(Cl)c(OC)cc(OC)c4Cl)ncn3)cc2)CC1` [infigratinib], the inhibition at 1 µM was -0.912% in experiment [1] (setting [10]); 11% in experiment [2] (setting [11]); -2.82% in experiment [3] (setting [12]); -7% in [4] (setting [13]); -1.75% in experiment [5] (setting [14]); 3.24% in experiment [6] (setting [15]). For the same molecule, the inhibition at 1 µM is -0.837% in experiment [7] (setting [16]), -1.16% in experiment [8] (setting [17]) and -10% in experiment [9] (setting [18]).

As for `O=C(Nc1cnn2ccc(N3CCC[C@@H]3c3cc(F)ccc3F)nc12)N1CC[C@H](O)C1` [larotrectinib], the inhibition at 1 µM was -0.39% in experiment [1] (setting [10]); 0.148% in experiment [2] (setting [11]); -2.24% in experiment [3] (setting [12]); -5.46% in experiment [4] (setting [13]); -5.37% in [5] (setting [14]); 4% in experiment [6] (setting [15]). The inhibition at 1 µM in experiment [7] (setting [16]) is -2.21%; in experiment [8] (setting [17]) it was -0.832%; in experiment [9] (setting [18]), -6%.
